According to patent US11986471B2, “Compounds and methods of use” (Tango Therapeutics, Inc., priority 2018, dated 2024):

Tests used:
[1] = biological target: T1, PRMT5 (Homo sapiens, UniProt O14744); assay: PRMT5 IC50 assay in the presence of MTA as cofactor; type: biochemical; conditions: for IC50: PRMT5, MTA as cofactor
T1 construct: purchased Viva (custom protein)
In short: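 Ki conversion: SAM arm, Ki=IC50/1.5; MTA arm, Ki=IC50/13.5. No-cofactor arm reported as IC50 only. Selectivity expressed as Ki(SAM)/Ki(MTA).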

[2] = tested on: HAP1 MTAP-intact; assay: SDMA in-cell western assay, HAP1 MTAP-intact cell line; type: cell-based; conditions: Homo sapiens
In short: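 Cells from two matched HAP1 lines, MTAP-null and MTAP-expressing at endogenous levels, are treated with compound. SDMA is then quantified by in-cell western and an IC50 is calculated for each line.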

[3] = biological target: T1, PRMT5; assay: PRMT5 IC50 assay with no cofactor; type: biochemical
In short: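 Enzyme: human PRMT5. Conditions: plus SAM, plus MTA, or cofactor-free. Output: IC50 (μM); Ki via IC50/1.5 (SAM) or IC50/13.5 (MTA).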

[4] = biological target: T1, PRMT5; assay: PRMT5 IC50 assay in the presence of SAM as cofactor; type: biochemical
In short: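 Three cofactor conditions tested for PRMT5 inhibition: none, MTA and SAM, each giving an IC50. For conversion to Ki, the MTA-condition IC50 is divided by 13.5 and the SAM-condition IC50 by 1.5, and the two Ki values are expressed as a SAM/MTA ratio.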

[5] = tested on: HAP1 MTAP-deleted; assay: SDMA in-cell western assay, HAP1 MTAP-deleted cell line; type: cell-based; conditions: for IC50: Homo sapiens, HAP1 MTAP-deleted cell line; for MTAP Intact/Deleted Ratio: IC50 ratio HAP1 MTAP-intact / HAP1 MTAP-deleted
In short: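 MTAP-null HAP1 cells, the deleted member of an isogenic pair with endogenously MTAP-expressing HAP1, are treated with compound. SDMA is then quantified by in-cell western and an IC50 is calculated.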

[6] = ratio between Ki in the presence of SAM and Ki in the presence of MTA
[7] = ratio between the Ki in the presence of SAM and the Ki in the presence of MTA

T1 sequence (O14744 whole entry): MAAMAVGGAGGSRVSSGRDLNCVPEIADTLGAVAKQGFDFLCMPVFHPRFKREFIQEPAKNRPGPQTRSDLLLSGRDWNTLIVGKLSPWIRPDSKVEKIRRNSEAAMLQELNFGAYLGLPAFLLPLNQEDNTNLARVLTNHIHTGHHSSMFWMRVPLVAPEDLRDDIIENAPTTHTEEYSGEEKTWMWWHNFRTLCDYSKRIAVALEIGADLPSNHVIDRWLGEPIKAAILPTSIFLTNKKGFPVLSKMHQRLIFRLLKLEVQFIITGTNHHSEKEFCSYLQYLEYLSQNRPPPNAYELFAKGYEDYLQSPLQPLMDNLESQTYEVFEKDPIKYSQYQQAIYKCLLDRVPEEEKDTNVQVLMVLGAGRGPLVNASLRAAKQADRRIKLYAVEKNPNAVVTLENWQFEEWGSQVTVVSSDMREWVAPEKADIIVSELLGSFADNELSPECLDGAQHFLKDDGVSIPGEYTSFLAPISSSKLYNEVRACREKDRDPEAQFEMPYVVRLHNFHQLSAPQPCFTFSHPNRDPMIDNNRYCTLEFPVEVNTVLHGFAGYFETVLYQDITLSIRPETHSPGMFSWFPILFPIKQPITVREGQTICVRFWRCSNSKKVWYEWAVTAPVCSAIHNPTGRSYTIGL
T1 sequence (Q9BQA1 whole entry partner): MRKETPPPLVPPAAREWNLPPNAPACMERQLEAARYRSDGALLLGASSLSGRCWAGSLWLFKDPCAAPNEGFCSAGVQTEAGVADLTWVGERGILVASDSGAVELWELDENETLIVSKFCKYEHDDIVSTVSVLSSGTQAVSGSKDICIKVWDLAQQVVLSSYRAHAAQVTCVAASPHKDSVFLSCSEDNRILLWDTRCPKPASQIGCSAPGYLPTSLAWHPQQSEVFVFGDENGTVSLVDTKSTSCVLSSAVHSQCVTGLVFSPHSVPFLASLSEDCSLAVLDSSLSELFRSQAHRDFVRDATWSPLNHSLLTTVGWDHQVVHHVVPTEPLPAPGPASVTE

Row | Structure (SMILES) | IC50 [1] | IC50 [2] | IC50 ([3]; read-out: No Co-factor IC50) | IC50 [4] | IC50 [5] | IC50 [3] | SAM/MTA Ratio [1, 6] | MTAP Intact/Deleted Ratio [5] | SAM/MTA Ratio [1, 7]
1 | Cc1c(OCc2cnco2)ccc2c1CCN(C[C@@H](O)CNC(=O)c1ccnc(NC3CC4(CC4)C3)c1)C2 [Compound 472] | 50 to 500 nM | ≥ 10000 nM | – | 50 to 500 nM | 1000 to 10000 nM | 500 to 5000 nM | – | B* (an IC50 ratio greater than or equal to 3 fold but lower than 10 fold between the IC50 in the HAP1 MTAP-intact cell line and the HAP1 MTAP-deleted cell line) | A (a Ki ratio greater than or equal to 10 fold between the Ki in the presence of SAM and the Ki in the presence of MTA)
2 | Cc1ncoc1COc1ccc2c(c1C)CCN(C[C@@H](O)CNC(=O)c1ccnc(NC3CCC3)c1)C2 [Compound 272, (S)-2-(cyclobutylamino)-N-(2-hydroxy-3-[5-methyl-6-((4-methyloxazol-5-yl)methoxy)-3N-dihydroisoquinolin-2(1H)-yl)propyl)isonicotinamide] | 50 to 500 nM | ≥ 10000 nM | ≥ 5000 nM | 50 to 500 nM | 1000 to 10000 nM | – | A (a Ki ratio greater than or equal to 10 fold between the Ki in the presence of SAM and the Ki in the presence of MTA) | C* (an IC50 ratio of less than 3 fold between the IC50 in the HAP1 MTAP-intact cell line and the HAP1 MTAP-deleted cell line) | –
3 | CC(=O)N1CCC(Nc2cc(C(=O)NC[C@H](O)CN3CCc4cc(OCc5ocnc5C)ccc4C3)ccn2)CC1 [Compound 622, (S)-2-((1-acetylpiperidin-4-yl)amino)-N-(2-hydroxy-3-(6-((4-methyloxazol-5-yl)methoxy)-3,4-dihydroisoquinolin-2(1H)-yl)propyl)isonicotinamide] | < 50 nM | ≥ 10000 nM | – | 50 to 500 nM | < 1000 nM | 500 to 5000 nM | – | A* (an IC50 ratio greater than or equal to 10 fold between the IC50 in the HAP1 MTAP-intact cell line and the HAP1 MTAP-deleted cell line) | A (a Ki ratio greater than or equal to 10 fold between the Ki in the presence of SAM and the Ki in the presence of MTA)
4 | Cc1ncoc1COc1ccc2c(c1)CCN(C[C@@H](O)CNC(=O)c1cc(NC3CCC3)nc(N3C4CCC3COC4)c1)C2 [Compound 598] | 50 to 500 nM | < 1000 nM | – | 50 to 500 nM | < 1000 nM | 500 to 5000 nM | – | C* (an IC50 ratio of less than 3 fold between the IC50 in the HAP1 MTAP-intact cell line and the HAP1 MTAP-deleted cell line) | A (a Ki ratio greater than or equal to 10 fold between the Ki in the presence of SAM and the Ki in the presence of MTA)
5 | O=C(NC[C@H](O)CN1CCc2cc(OCc3cnco3)ccc2C1)c1cc(NC2CCC2)nc(N2CCN(C(=O)C3CC3)CC2)c1 [Compound 378, (S)-2-(cyclobutylamino)-6-(4-(cyclopropanecarbonyl)piperazin-1-yl)-N-(2-hydroxy-3-(6-(oxazol-5-ylmethoxy)-3N-dihydroisoquinolin-2(1H)-yl)propyl)isonicotinamide] | 50 to 500 nM | < 1000 nM | 500 to 5000 nM | 50 to 500 nM | < 1000 nM | – | A (a Ki ratio greater than or equal to 10 fold between the Ki in the presence of SAM and the Ki in the presence of MTA) | C* (an IC50 ratio of less than 3 fold between the IC50 in the HAP1 MTAP-intact cell line and the HAP1 MTAP-deleted cell line) | –
6 | COCCN(C)c1cc(C(=O)NC[C@H](O)CN2CCc3cc(OCc4ocnc4C)ccc3C2)cc(NC2CCN(C(C)=O)CC2)n1 [Compound 582] | 50 to 500 nM | 1000 to 10000 nM | – | 50 to 500 nM | < 1000 nM | 500 to 5000 nM | – | A* (an IC50 ratio greater than or equal to 10 fold between the IC50 in the HAP1 MTAP-intact cell line and the HAP1 MTAP-deleted cell line) | A (a Ki ratio greater than or equal to 10 fold between the Ki in the presence of SAM and the Ki in the presence of MTA)
7 | CC(=O)N1CCN(c2cc(C(=O)NC[C@H](O)CN3CCc4c(ccc(OCc5cnco5)c4Cl)C3)cc(NC3CCC3)n2)CC1 [Compound 545, (S)-2-(4-acetylpiperazin-1-yl)-N-(3-(5-chloro-6-(oxazol-5-ylmethoxy)-3,4-dihydroisoquinolin-2(1H)-yl)-2-hydroxypropyl)-6-(cyclobutylamino)isonicotinamide] | 50 to 500 nM | ≥ 10000 nM | – | 50 to 500 nM | 1000 to 10000 nM | 500 to 5000 nM | – | B* (an IC50 ratio greater than or equal to 3 fold but lower than 10 fold between the IC50 in the HAP1 MTAP-intact cell line and the HAP1 MTAP-deleted cell line) | A (a Ki ratio greater than or equal to 10 fold between the Ki in the presence of SAM and the Ki in the presence of MTA)

Second part, led by results:

Row | IC50 [1] | IC50 [2] | IC50 ([3]; read-out: No Co-factor IC50) | IC50 [4] | IC50 [5] | IC50 [3] | Structure (SMILES) | SAM/MTA Ratio [1, 6] | MTAP Intact/Deleted Ratio [5] | SAM/MTA Ratio [1, 7]
8 | 50 to 500 nM | < 1000 nM | 500 to 5000 nM | 50 to 500 nM | < 1000 nM | – | CC(=O)N1CC(Nc2cc(C(=O)NC[C@H](O)CN3CCc4cc(OCc5cnco5)ccc4C3)nc(C(C)(C)C)n2)C1 [Compound 379, (S)-6-((1-acetylazetidin-3-yl)amino)-2-(tert-butyl)-N-(2-hydroxy-3-(6-(oxazol-5-ylmethoxy)-3,4-dihydroisoquinolin-2(1H)-yl)propyl)pyrimidine-4-carboxamide] | A (a Ki ratio greater than or equal to 10 fold between the Ki in the presence of SAM and the Ki in the presence of MTA) | C* (an IC50 ratio of less than 3 fold between the IC50 in the HAP1 MTAP-intact cell line and the HAP1 MTAP-deleted cell line) | –
9 | 50 to 500 nM | ≥ 10000 nM | – | 50 to 500 nM | 1000 to 10000 nM | 500 to 5000 nM | Cc1c(OCc2cnco2)ccc2c1CCN(C[C@@H](O)CNC(=O)c1cc(NC3CCN(C(=O)C4CCC4)CC3)ncn1)C2 [Compound 536, 6-[(1-cyclobutanecarbonylpiperidin-4-yl)amino]-N-[(2S)-2-hydroxy-3-{5-methyl-6-[(1,3-oxazol-5-yl)methoxy]-1,2,3,4-tetrahydroisoquinolin-2-yl}propyl]pyrimidine-4-carboxamide] | – | B* (an IC50 ratio greater than or equal to 3 fold but lower than 10 fold between the IC50 in the HAP1 MTAP-intact cell line and the HAP1 MTAP-deleted cell line) | A (a Ki ratio greater than or equal to 10 fold between the Ki in the presence of SAM and the Ki in the presence of MTA)
10 | 500 to 5000 nM | ≥ 10000 nM | ≥ 5000 nM | 500 to 5000 nM | ≥ 10000 nM | – | Cc1ncoc1COc1ccc2c(c1Br)CCN(C[C@@H](O)CNC(=O)c1cc(NC3CCC3)ncn1)C2 [Compound 338, (S)—N-(3-(5-bromo-6-((4-methyloxazol-5-yl)methoxy)-3,4-dihydroisoquinolin-2(1H)-yl)-2-hydroxypropyl)-6-(cyclobutylamino)pyrimidine-4-carboxamide] | A (a Ki ratio greater than or equal to 10 fold between the Ki in the presence of SAM and the Ki in the presence of MTA) | C* (an IC50 ratio of less than 3 fold between the IC50 in the HAP1 MTAP-intact cell line and the HAP1 MTAP-deleted cell line) | –
11 | 50 to 500 nM | ≥ 10000 nM | 500 to 5000 nM | 50 to 500 nM | 1000 to 10000 nM | – | CC(C)N1CCN(c2nc(NC3COC3)cc(C(=O)NC[C@H](O)CN3CCc4cc(OCc5cnco5)ccc4C3)n2)CC1 [Compound 296, (S)—N-(2-hydroxy-3-(6-(oxazol-5-ylmethoxy)-3N-dihydroisoquinolin-2(1H)-yl)propyl)-2-(4-isopropylpiperazin-1-yl)-6-(oxetan-3-ylamino)pyrimidine-4-carboxamide] | A (a Ki ratio greater than or equal to 10 fold between the Ki in the presence of SAM and the Ki in the presence of MTA) | C* (an IC50 ratio of less than 3 fold between the IC50 in the HAP1 MTAP-intact cell line and the HAP1 MTAP-deleted cell line) | –
12 | 50 to 500 nM | < 1000 nM | ≥ 5000 nM | 500 to 5000 nM | < 1000 nM | – | O=C(NC[C@H](O)CN1CCc2cc(OCc3cnco3)ccc2C1)c1cc(NC2CCCC2)ncn1 [Compound 372, (S)-6-(cyclopentylamino)-N-(2-hydroxy-3-(6-(oxazol-5-ylmethoxy)-3,4-dihydroisoquinolin-2(1H)-yl)propyl)pyrimidine-4-carboxamide] | A (a Ki ratio greater than or equal to 10 fold between the Ki in the presence of SAM and the Ki in the presence of MTA) | C* (an IC50 ratio of less than 3 fold between the IC50 in the HAP1 MTAP-intact cell line and the HAP1 MTAP-deleted cell line) | –
13 | 50 to 500 nM | 1000 to 10000 nM | 500 to 5000 nM | 50 to 500 nM | < 1000 nM | – | CCCN(C)c1cc(C(=O)NC[C@H](O)CN2CCc3cc(OCc4cnco4)ccc3C2)cc(NC2CCC2)n1 [Compound 415] | A (a Ki ratio greater than or equal to 10 fold between the Ki in the presence of SAM and the Ki in the presence of MTA) | C* (an IC50 ratio of less than 3 fold between the IC50 in the HAP1 MTAP-intact cell line and the HAP1 MTAP-deleted cell line) | –
